Test results: US6682897B1, “Peptides derived from human heat protein 60 for treatment of diabetes, compositions, methods and kits” (Yeda Research and Development Co. Ltd., priority 1995, dated 2004)
Marks after values point to notes of the source that are not given here. Where no end group is shown, it is not given here.

Legend:
[1] = system: draining lymph nodes; assay: T-cell proliferative responses of NOD mice to peptides (Example 4, FIG. 3); format: cell-based; details: NOD mice immunized with 25 μg peptide in IFA, lymph nodes 10 days later, 20 μg/ml
Procedure: FIG. 3 is a graph showing T-cell proliferative responses of NOD mice to peptides. Groups of three NOD mice were […] with peptides mouse p12, mouse p277, GAD-p35 and MT-p278 in IFA each at a dose of 25 μg in IFA. The draining lymph nodes were removed 10 days later and assayed for proliferative responses to the corresponding peptide at the concentrations of 5, 10, 20, and 50 μg/ml. The stimulation at the optimal concentration of 20 μg/ml is shown. The following ranges of cpm were obtained in medium controls: mouse p12, 881; mouse p277, 1243; MT-p278, 698 and GAD-p35 1430. Peptide mouse p38 is a peptide derived from mouse hsp60 (556-573), which has no sequence homology with the tested peptides and serves as a negative control of specificity. […] Each assay was done in triplicates for which the SD values are indicated by the bars. There was no cross-reactivity between the peptides (not shown).
(§1) (iii) T-Cell proliferation to peptides. Mice. Nine week old NOD mice or mice of other strains were immunized in the hind foot pads with 0.1 ml of an emulsion containing 25 μg peptide in complete Freund's adjuvant (CFA; Difco, Detroit, Mich.) mixed with an equal volume of phosphate-buffered saline (PBS). The draining popliteal lymph nodes were removed 10 days later and suspensions of lymphocytes in triplicate cultures were tested for proliferation in the presence of the various peptides (5 μg/ml) using the incorporation of [^3H]-thymidine as described (Elias et al., 1991). The results are shown as the stimulation index (SI): the ratio of the mean cpm in the presence of the test peptide to the mean cpm of control cultures without the peptide. Standard errors were always less than 10% of the means.
Spontaneous T cell responses in pre-diabetic NOD mice were detected to the mouse p277 peptide (Elias et al., 1991; Birk et al., 1996) and to larger fragments of the mouse hsp60 molecule that contained the mouse p277 sequence (Birk et al., 1996). […] Other peptides immunogenic for NOD mice are the MT-p278 peptide (residues 458-474 in the Mycobacterial hsp60 molecule), and GAD-p35 (residues 524-543 in the GAD65 molecule).

[2] = system: serum antibodies of the IgG1, IgG2a and IgG2b isotypes; assay: Serum anti-peptide antibody isotypes by ELISA in peptide-treated NOD mice (FIG. 5); format: in vivo; details: for antibody titers of the IgG1 and IgG2b isotypes: peptide-treated NOD mice, sera diluted 1:50, ELISA
Procedure: FIGS. 5A-5D show the IgG1, IgG2a and IgG2b antibody isotypes in response to peptide treatment. Mice were treated as described in the legend to FIG. 4. Individual samples were analyzed for antibodies to mouse p12 A; p277 B; GAD-p35 C; and MT-p278 D, of the IgG1, IgG2a and IgG2b isotypes. Similar effects were obtained in two experiments. The results are presented as the absorbance at 405 nm (OD) of 10 individual mice in each group. The level of significance of the prevalence of IgG1 and IgG2b antibodies in groups A and B compared to C and D is P<0.001. The differences between the levels of IgG1 and IgG2b antibodies compared to the IgG2a antibodies in groups A and B were significant (P<0.001). There was no cross-reactivity between the antibodies (not shown).
(v) Serum Antibodies. Mice were bled monthly to detect antibody responses. The ELISA assay was done as described (Elias et al., 1991). Briefly, flat bottom Maxi-sorb plates (Nunc, Roskilde, Denmark) were coated, for the detection of anti-peptide antibodies, with […] of peptide in PBS, at a concentration of […] for 2 h at room temperature followed by over night incubation at 4° C. After incubation with peptide, the plates were washed and blocked for 2 h at 37° C. with 7% BSA (Sigma) in PBS. Sera were diluted 1:50 then added for 2 h at 37° C., followed by incubation for 2 h with […] of goat anti-mouse IgG (gamma chain Fc specific) conjugated to alkaline phosphatase (Jackson, Philadelphia, Pa.). After washing, the plates were incubated with the substrate, diethanolamine (Sigma) and read using an ELISA reader at 405 nm.
Successful treatment of STZ-induced diabetes with mouse peptide p277 was associated with the appearance of anti-peptide antibodies predominantly of the IgG1 and IgG2b isotypes (Elias and Cohen, 1996). The peptide-treated NOD mice for their serum antibodies was therefore examined. […] Thus, effectiveness in inhibiting diabetes was associated with the induction of an antibody response mainly of the IgG1 and IgG2b isotypes.

[3] = system: spleens of female NOD mice; assay: Spontaneous T-cell responses in spleens of female NOD mice (longitudinal study); format: cell-based; details: female NOD mice at ages 3-16 weeks
[4] = system: female NOD mice; assay: Peptide treatment of 10-week old NOD mice, development of diabetes (Example 4, FIG. 4); format: in vivo; details: single s.c. injection in IFA at 10 weeks, observed through 8 months of age, vs IFA alone
Procedure: FIG. 4 is a graph showing the effect of peptide administration on diabetes. Groups of 10-20 NOD mice were treated at 10 weeks of age with 100 μg of mouse p12, p277, p35-GAD or MT-p278 in IFA, or IFA alone. The mice were bled monthly and followed for the onset of hyperglycemia.
(§2) (iv) Treatment and follow-up. Peptides, […], in PBS, were emulsified with an equal volume of IFA and injected subcutaneously into 10-week-old NOD females as described (Elias and Cohen, 1995). Control mice received an equal volume of PBS emulsified in IFA. The mice were monitored monthly for non-fasting blood glucose at 10am using the Blood Glucose Sensor (MediSense. Inc., Waltham, Mass.). Mice with a blood glucose greater than 11.1 mmol/L were considered to be diabetic; this concentration of glucose was greater than 3 standard deviations above the mean blood glucose concentration measured in non-diabetic mice (Elias and Cohen, 1995). Histological examination of the islets of the pancreas was done on sections stained with hematoxylin and eosin. The sections were scored independently by two observers who both were unaware of the identity of the groups. The chi square test was used to ascertain the statistical differences between the various treatments.
Following a protocol shown to be effective with mouse p277(Elias et al., 1991; Elias and Cohen, 1994; Elias and Cohen, 1995), groups of 10-week old female NOD mice were treatedby a single subcutaneous injection of each peptide ([…]) emulsified in IFA.

[5] = system: peripheral blood T-cells; assay: Peripheral blood T-cell proliferation of IDDM patients and healthy controls to hsp60 and hsp60 synthetic peptides (Example 5); format: cell-based, human; details: 26 newly diagnosed IDDM patients; peptides 20 μg/ml, 7 days
[6] = system: NOD mice; details: s.c. in IFA; young NOD mice or 12-17 week old NOD mice with advanced insulitis; cited from earlier work
[7] = system: C57BL/KsJ mice; details: mice that had received earlier a very low dose of STZ; cited from earlier work
[8] = Cross-reactivity with native peptide by T-cell and antibody assays
Text: (ii) Antigens. […] Whenever unspecified, the human sequence is intended.

[9] = system: Peripheral mononuclear cells (PBMC) of IDDM patients; assay: T-cell proliferative response of PBMC from newly diagnosed IDDM patients (Example 3); format: cell-based, human; details: antigen 10 μg/ml, 6 days, SI more than 2.0 positive
Procedure: To determine the T-cell responses to the various hsp60 peptides, lymphocytes from the peripheral blood of newly diagnosed (2 weeks-4 months) IDDM patients were tested in a proliferation assay. 10-20 ml of blood were removed into a sterile tube containing heparin as anti-coagulant and diluted in PBS 1:2. Peripheral mononuclear cells (PBMC) were isolated by centrifuging the blood over a lymphoprep layer. The PBMC were tested for proliferation in triplicates, in the presence of the various antigens (10 μg/ml) for 6 days using the incorporation of [^3H]-thymidine as a measure of proliferation. The antigens tested were human hsp60 or the hsp60 peptides p277(Val^6-Val^11), p12, p32 and control peptide p278. The T cell proliferative response is depicted as stimulation index (SI): The ratio between peptide-stimulated thymidine incorporation and background (no antigen added) thymidine incorporation by the T cells.

[10] = system: draining popliteal lymph node lymphocytes; assay: T-cell proliferation of draining lymph node cells of NOD mice immunized with hsp60 peptides in CFA (Example 1, FIG. 2); format: cell-based; details: NOD mice immunized with peptide emulsified in CFA in hind foot pads, assayed after 10 days
Procedure: as §1, with “1991).” for “1991). The results are shown as the stimulation index (SI): the ratio of the mean cpm in the presence of the test peptide to the mean cpm of control cultures without the peptide. Standard errors were always less than 10% of the means.”
The immunogenicity of the hsp60 peptides p12, p32, p277(Val^6-Val^11) and p278 in NOD mice was tested by immunizing the mice with the peptides emulsified in CFA in the hind foot pads, and assaying the proliferative responses of draining lymph node cells after 10 days as described above in section iii(a).

[11] = compared with p277; cited from earlier work
[12] = system: NOD/Lt female mice; assay: Treatment of NOD mice with peptides in IFA: diabetes and mortality (Example 2); format: in vivo; details: 100 μg peptide in IFA s.c., nine-week old NOD/Lt females; for Diabetes (%): persistent blood glucose over 11.1 mmol/l at 25 weeks of age
Procedure: as §2, with “Mice with a blood glucose greater than 11.1 mmol/L were considered to be diabetic; this concentration of glucose was greater than 3 standard deviations above the mean blood glucose concentration measured in non-diabetic mice (Elias and Cohen, 1995).” left out
To test whether the p12 and p32 peptides can block the progression of diabetes as p277(Val^6-Val^11), the p277(Val6-Val^11), p12 or p32 peptides (100 μg in a 0.1 cc emulsion of IFA) were administered subcutaneously to groups of 10-12 nine-week old NOD/Lt female mice of the Jackson Laboratory, Bar-Harbor, Me. Diabetes, determined as persistent blood glucose levels over 11.1 mmol/l, was tested at 25 weeks of age. Control mice were untreated or were treated with p278.

Substance: EGDEATGANIVKVALEA [MT-p278]
- immunogenicity (T-cell proliferative response) [1]: as strongly immunogenic as are mouse p277 and mouse p12
- mice that made specific IgG1 antibodies ([2]; 10 individual mice per group, ELISA): only two of the ten
- titers of IgG2b antibodies ([2]; compared with mouse p12 and mouse p277 groups): significantly lower titers
- antibody titers of the IgG1 and IgG2b isotypes [2]: did not respond as strongly
- spontaneous T-cell responses [3]: spontaneous responses were detected
- development of diabetes [4]: no different than was treatment with IFA alone

Substance: KAPGFGDNRKNQLKDMAIAT [p21, human hsp60 residues 301-320]
- T-cell proliferative response of IDDM patients (S.I. 2 or greater positive) [5]: no IDDM patients responded

Substance: LVIIAEDVDGEALSTLVLNR [p19, human hsp60 residues 271-290]
- T-cell proliferative response of IDDM patients (S.I. 2 or greater positive) [5]: no IDDM patients responded

Substance: VLGGGCALLRCIPALDSLTPANED (cysteine pairing not given here) [p277, human hsp60 residues 437-460]
- disease progression [6]: arrest of disease progression
- development of diabetes [4]: significantly protected
- development of autoimmune diabetes [7]: aborted the development of autoimmune diabetes

Substance: VLGGGVALLRVIPALDSLTPANED [p277(Val^6-Val^11)]
- cross-reactivity with the native peptide [8]: completely cross-reactive
- T-cell proliferative response (SI) ([9]; Patient 1): 4.5
- T-cell proliferative response (SI) ([9]; Patient 2): 5.0
- T-cell proliferative response (SI) ([9]; Patient 3): 5.6
- T-cell proliferative response (SI) ([9]; Patient 4): 1.0
- T-cell proliferative response (SI) ([9]; Patient 5): 1.1
- T-cell proliferative response (SI) ([9]; Patient 6): 1.3
- T-cell proliferative response (SI) ([9]; Patient 7): 3.9
- T-cell proliferative response (SI) ([9]; Patient 8): 1.2
- immunogenicity (proliferative responses of draining lymph node cells) [10]: strongly immunogenic
- activity in the treatment of diabetes [11]: as active as p277
- Mortality (%) [12]: 5* %
- therapeutic effect in treatment of diabetes [12]: effective in treatment of diabetes
- Diabetes (%) [12]: 10%
- Diabetes (%) ([12]; listed as p277 (Val^6 - Val^11)): 10* %

Substance: mouse p277: mouse variant of p277, mouse hsp60 437-460; differs from human by 1 amino acid (VLGGGCALLRCIPALDSLKPANED; UniProt P63038 437-460, looked up, fragment)
- immunogenicity (T-cell proliferative response) [1]: strong response
- antibody titers of the IgG1 and IgG2b isotypes [2]: effective in inducing strong antibody titers
- spontaneous T-cell responses [3]: spontaneous responses were detected
- development of diabetes [4]: effective in inhibiting the development of diabetes
